{"source": "paper PMC3731256", "about": "“Optimization of Substituted 6-Salicyl-4-Anilinoquinazoline Derivatives as Dual EGFR/HER2 Tyrosine Kinase Inhibitors” (PLoS ONE, 2013)", "test_system": "MCF-7 cells", "experiment": "Antiproliferation WST-1 assay, MCF-7", "type": "cell-based, human", "settings": "Homo sapiens, MCF7, WST-1 assay; MCF-7 breast cancer, Her2/neu overexpression; read-out: Cellular IC50, MCF-7", "protocol": "WST-1 is better than MTT for analyzing cell proliferation, because it can be reduced to soluble formazan by dehydrogenase in mitochondria and has little toxicity to cells. Cell proliferation was determined using WST-1 dye (Beyotime Inst Biotech, China) according to manufacture’s instructions. Brieﬂy, 5 × 10^3 cells per well were seeded in a 96-well plate, grown at 37 ℃ for 24 h, and then placed in serum-starved conditions for a further 6 h. Subsequently, cells were treated with compounds (Table 1) at increasing concentrations in the presence of 10% FBS for 24 or 48h. After 10 µL WST-1 dye was added to each well, cells were incubated at 37 ℃ for 2 h and the absorbance was ﬁnally determined at 450 nm using a microplate reader."}
{"smiles": "O=C(Nc1ccc2ncnc(Nc3cccc(Br)c3)c2c1)c1ccc(C(F)(F)F)cc1O", "note": "[Compound 21, N-(4-(3-bromophenylamino)quinazolin-6-yl)-2-hydroxy-4-(trifluoromethyl)benzamide]", "values": [{"measurement": "IC50", "value": "490 ± 18", "unit": "nM"}]}
